From patent EP0500953B1, “ANTINEOPLASTIC EFFECT POTENTIATOR AND ANTINEOPLASTIC AGENT” (TAIHO PHARMACEUTICAL COMPANY LIMITED, priority 1990, dated 1992)

Legend:
[1] = Body weight change as index of drug-induced systemic toxicity, COLON 26-bearing mice (Example 1); type: in vivo, male CDF1 mice; conditions: Dosage 20.0 mg/kg, orally once a day for 9 days, day 12 vs day of transplantation
Description: (§1) A 2 mm-diameter fragment of mouse colon cancer line COLON 26 was subdermally transplanted at the back of male CDF1 mice. Beginning 24 hours after transplantation of the tumor fragment, a solution or suspension of tegafur-uracil combination drug, 5-fluorouracil and calcium folinate, the amounts of which are indicated below in Table 1, in 0.5% sodium calboxymethylcellulose (CMC) solution was administered orally once a day for 9 consecutive days. On day 12 after transplantation of the tumor fragment, the tumor was enucleated and weighed. From the ratio of the mean tumor weight in each treatment group to that in the control group, the tumor growth inhibition rate was calculated. On the other hand, the body weight of mice on the day of tumor fragment transplantation was subtracted from the body weight of mice exclusive of tumors on day 12 after transplantation and the difference was used as the index of drug-induced systemic toxicity. Furthermore, the stools passed by mice in each treatment group were examined daily and, in accordance with the method described in Japanese Journal of Cancer Research Vol. 81, 188-195 (1990), the stool property was rated on the following scale: -: normal stool (hard pellets with little moisture), ±: loose stool (normal form, moist and soft), +: loose stool (undefinable form, very moist and soft), ++: diarrheal stool (formless, watery).

[2] = test system: mouse colon cancer line COLON 26; assay: Tumor growth inhibition, subdermally transplanted COLON 26 tumor fragment in mice (Example 1); type: in vivo; conditions: Dosage 20.0 mg/kg, orally once a day for 9 consecutive days, tumor weight on day 12
Description: as §1

[3] = Stool property rating (digestive organ toxicity), COLON 26-bearing mice (Example 1); type: in vivo, male CDF1 mice; set-up: key: -: normal stool (hard pellets with little moisture); ±: loose stool (normal form, moist and soft); +: loose stool (undefinable form, very moist and soft); ++: diarrheal stool (formless, watery); conditions: Dosage 20.0 mg/kg, orally once a day for 9 days
Description: as §1

O=c1[nH]cc(F)c(=O)[nH]1 [5-Fluorouracil, 5-fluorouracil]
Change in body weight (g) ([1]; Folinic acid 0 mg/kg): +1.7 g | Change in body weight (g) ([1]; Folinic acid 100 mg/kg): +0.1 g | Tumor Growth inhibition rate (%) ([2]; Folinic acid 0 mg/kg): 43% | Tumor Growth inhibition rate (%) ([2]; Folinic acid 100 mg/kg): 56% | Stool property ([3]; Folinic acid 0 mg/kg): ± | Stool property ([3]; Folinic acid 100 mg/kg): ++
